Values of other authors, collected in patent publication US6355670B1, “Use of estrogen antagonists and estrogen agonists in inhibiting pathological conditions” (Pfizer, Inc., priority 1996, dated 2002).

Assays:
[1] = system: intact or ovariectomized female rats
[2] = system: streptozotocin diabetic rats; details: implanted
estrogen receptor = biological target: T1, estrogen receptor (Homo sapiens, UniProt P03372); details: higher, relative to tamoxifen
T1 sequence (P03372 1-595): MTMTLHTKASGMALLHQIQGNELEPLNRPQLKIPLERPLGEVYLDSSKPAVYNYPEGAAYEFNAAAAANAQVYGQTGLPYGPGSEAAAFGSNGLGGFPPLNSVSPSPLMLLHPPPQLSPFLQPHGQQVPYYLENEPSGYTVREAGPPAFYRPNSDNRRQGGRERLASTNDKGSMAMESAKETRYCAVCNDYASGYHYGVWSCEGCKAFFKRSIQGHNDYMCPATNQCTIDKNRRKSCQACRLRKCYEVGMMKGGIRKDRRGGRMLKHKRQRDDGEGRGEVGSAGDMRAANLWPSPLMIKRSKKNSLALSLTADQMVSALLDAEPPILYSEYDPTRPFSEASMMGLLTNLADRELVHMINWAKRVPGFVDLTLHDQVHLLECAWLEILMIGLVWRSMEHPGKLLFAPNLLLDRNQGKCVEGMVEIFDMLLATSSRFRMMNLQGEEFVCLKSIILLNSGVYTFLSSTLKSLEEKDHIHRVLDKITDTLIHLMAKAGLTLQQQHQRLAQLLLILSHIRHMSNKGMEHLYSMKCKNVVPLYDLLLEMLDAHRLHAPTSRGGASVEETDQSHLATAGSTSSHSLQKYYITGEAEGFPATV

[3] = in vivo or in vitro

For C[C@]12CC[C@H]3[C@@H](CCC4=CC(=O)CC[C@@]43C)[C@@H]1CC[C@@H]2O [testosterone], the insulin resistance [1] is given as “marked insulin resistance” and the “ability of residual insulin to maintain glycemic control” value [2] is given as “antagonized the ability of residual insulin to maintain glycemic control”.
For CC/C(=C(\c1ccccc1)c1ccc(OCCN(C)C)cc1)c1ccccc1 [tamoxifen], the liver tumors (rats) is given as “causes liver tumors in rats”.
For CC/C(=C(/c1ccc(OCCN(C)C)cc1)c1cccc(O)c1)c1ccccc1 [droloxifene, 3-hydroxytamoxifen], the “binding affinity to the estrogen receptor compared to tamoxifen” value (estrogen receptor) is given as 10-60 fold and the “carcinogenic or mutagenic effects” value [3] is given as “devoid of in vivo or in vitro carcinogenic or nutagenic effects”.
